Source: PubChem BioAssay (NCI)
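Exposure lasted 48 hours, with cells grown in 96-well plates and compounds tested at five concentrations. TGI: concentration producing complete growth inhibition.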

Legend:
Assay in all cases: NCI anticancer screen, dose series, 48 h
UACC-257 melanoma = tested on: UACC-257 melanoma
TK-10 renal = tested on: TK-10 renal
NCI-H522 lung = tested on: NCI-H522 lung
UO-31 renal = tested on: UO-31 renal
KM12 colon = tested on: KM12 colon
UACC-62 melanoma = tested on: UACC-62 melanoma
HOP-92 NSCLC = tested on: HOP-92 NSCLC
RXF 393 renal = tested on: RXF 393 renal
SW-620 colon = tested on: SW-620 colon
SNB-19 CNS = tested on: SNB-19 CNS
SN12C renal = tested on: SN12C renal
RPMI-8226 leukemia = tested on: RPMI-8226 leukemia
786-0 renal = tested on: 786-0 renal
COLO 205 colon = tested on: COLO 205 colon
SK-MEL-5 melanoma = tested on: SK-MEL-5 melanoma
HOP-18 NSCLC = tested on: HOP-18 NSCLC
A549 NSCLC = tested on: A549 NSCLC
CAKI-1 renal = tested on: CAKI-1 renal
SNB-78 CNS = tested on: SNB-78 CNS
HOP-62 NSCLC = tested on: HOP-62 NSCLC
LXFL 529 NSCLC = tested on: LXFL 529 NSCLC
U251 CNS = tested on: U251 CNS
HL-60(TB) leukemia = tested on: HL-60(TB) leukemia
CCRF-CEM leukemia = tested on: CCRF-CEM leukemia
OVCAR-3 ovarian = tested on: OVCAR-3 ovarian
IGROV1 ovarian = tested on: IGROV1 ovarian
M19-MEL melanoma = tested on: M19-MEL melanoma
M14 melanoma = tested on: M14 melanoma
SR leukemia = tested on: SR leukemia
A498 renal = tested on: A498 renal
OVCAR-4 ovarian = tested on: OVCAR-4 ovarian
SF-268 CNS = tested on: SF-268 CNS
RXF-631 renal = tested on: RXF-631 renal
LOX IMVI melanoma = tested on: LOX IMVI melanoma
SF-539 CNS = tested on: SF-539 CNS
OVCAR-8 ovarian = tested on: OVCAR-8 ovarian
DLD-1 colon = tested on: DLD-1 colon
ACHN renal = tested on: ACHN renal
SNB-75 CNS = tested on: SNB-75 CNS
NCI-H226 lung = tested on: NCI-H226 lung
EKVX NSCLC = tested on: EKVX NSCLC
HT29 colon = tested on: HT29 colon
SF-295 CNS = tested on: SF-295 CNS
SK-MEL-28 melanoma = tested on: SK-MEL-28 melanoma
DMS 114 small cell lung = tested on: DMS 114 small cell lung
MALME-3M melanoma = tested on: MALME-3M melanoma
KM20L2 colon = tested on: KM20L2 colon
NCI-H460 lung = tested on: NCI-H460 lung
OVCAR-5 ovarian = tested on: OVCAR-5 ovarian
HCT-116 colon = tested on: HCT-116 colon
SK-OV-3 ovarian = tested on: SK-OV-3 ovarian
HCT-15 colon = tested on: HCT-15 colon
NCI-H23 lung = tested on: NCI-H23 lung
MOLT-4 leukemia = tested on: MOLT-4 leukemia
SK-MEL-2 melanoma = tested on: SK-MEL-2 melanoma
K-562 leukemia = tested on: K-562 leukemia
DMS 273 small cell lung = tested on: DMS 273 small cell lung
HCC-2998 colon = tested on: HCC-2998 colon

Measured: TGI

O=C(COc1ccc(/C=C/C(=O)c2ccc(Cl)cc2)cc1)Nc1c(Cl)cccc1Cl
not listed: SK-MEL-2 melanoma | K-562 leukemia | DMS 273 small cell lung | HCC-2998 colon
> 100 µM: all other assays above

C=C1CCC2C(C)(CO)C(O)CCC2(C)C1CC(O)/C(=C/CO)C(=O)O (stereo not drawn)
not listed: OVCAR-3 ovarian | NCI-H226 lung | EKVX NSCLC | SK-MEL-28 melanoma | NCI-H23 lung
> 100 µM: all other assays above

CC1CC2OC(=O)CC2C[C@@H]1O[Si](C)(C)C(C)(C)C (stereo partly drawn)
89.4 µM: DMS 114 small cell lung
51.8 µM: RPMI-8226 leukemia
97.4 µM: SK-MEL-5 melanoma
34.7 µM: HOP-92 NSCLC
45.5 µM: HL-60(TB) leukemia
56.7 µM: MOLT-4 leukemia
not listed: NCI-H522 lung | RXF 393 renal | U251 CNS | SR leukemia | A498 renal | NCI-H226 lung | SK-MEL-28 melanoma
> 100 µM: all other assays above
